Reference: patent publication US20240116985A1, “STAPLED PEPTIDES AND METHODS THEREOF” (priority 2020, published 2024)
Values after ≈ are worked out from the molar mass of the structure shown. Read-outs that look alike come from different tables or passages of the source.

How the values were obtained:
[1] = target: T1, full-length beta-Catenin (Uniprot ID P35222) (Homo sapiens, UniProt P35222); assay: Fluorescence polarization IC50 (beta-catenin / 5FAM-TCF4 10-53 competition); format: binding
T1 construct: 10 nM full-length beta-Catenin (Uniprot ID P35222)
T1 sequence (P35222 1-781): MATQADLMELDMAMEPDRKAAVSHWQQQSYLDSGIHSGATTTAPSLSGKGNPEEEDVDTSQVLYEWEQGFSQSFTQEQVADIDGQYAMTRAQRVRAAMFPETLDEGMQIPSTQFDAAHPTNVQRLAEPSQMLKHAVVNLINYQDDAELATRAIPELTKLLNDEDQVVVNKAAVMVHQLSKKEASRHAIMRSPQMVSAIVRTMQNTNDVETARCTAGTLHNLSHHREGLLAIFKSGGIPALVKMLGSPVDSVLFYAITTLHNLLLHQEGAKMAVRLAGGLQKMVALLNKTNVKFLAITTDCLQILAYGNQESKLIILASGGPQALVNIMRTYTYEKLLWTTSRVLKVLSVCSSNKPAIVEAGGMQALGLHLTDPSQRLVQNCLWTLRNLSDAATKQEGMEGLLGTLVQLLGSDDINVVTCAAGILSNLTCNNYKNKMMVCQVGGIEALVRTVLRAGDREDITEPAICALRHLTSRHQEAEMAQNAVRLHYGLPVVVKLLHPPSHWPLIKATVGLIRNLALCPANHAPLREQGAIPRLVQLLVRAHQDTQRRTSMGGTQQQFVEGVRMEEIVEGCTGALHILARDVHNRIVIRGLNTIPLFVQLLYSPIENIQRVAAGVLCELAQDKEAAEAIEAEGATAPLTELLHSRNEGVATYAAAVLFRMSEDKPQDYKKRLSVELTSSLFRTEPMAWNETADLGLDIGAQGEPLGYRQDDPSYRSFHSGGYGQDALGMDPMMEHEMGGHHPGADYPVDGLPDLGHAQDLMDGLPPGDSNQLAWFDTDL

[2] = CHI Log D procedure; format: physicochemical; settings: for CHI Log D: pH 7.4; for chromatographic logD: pH 7.4, CHI Log D
[3] = target: T2, beta-catenin/TCF4 engagement (Homo sapiens, UniProt P35222); assay: Nano-BRET target engagement assay (B-cat-Halo & TCF4-Luc in HEK293 cells); format: cell-based; settings: for IC50: read-out: NanoBRET Abs IC50; for inhibition at 10 µM: HEK293, @ 10 uM, read-out: NanoBRET % inh @ 10 uM
T2 construct: expressed in transfected cells; host or cells: HEK293
T2 sequence (P35222 1-781): T1 sequence (P35222 1-781)

[4] = Solubility in PBS; format: physicochemical
How it was run: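 HPLC quantitation of peptide remaining in the PBS supernatant after ultracentrifugation, referenced to a 50 μM solution in DMSO.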

[5] = fluorescence polarization, read-out: beta-Catenin FP IC50

Structure (SMILES) | IC50 [1, 5] | IC50 ([1]; read-out: FP EC50) | CHI Log D [2] | IC50 ([3]; absolute IC50) | Solubility [4] | inhibition at 10 µM [3] | chromatographic logD [2] | Solubility ([4]; Solubility (uM)) | IC50 ([3]; Abs IC50)
CC(=O)N1CCC[C@]12CC=CCCCC1(CCCC=CCCCOC(=O)N3CC[C@@](C(=O)N[C@@H](Cc4ccccc4)C(=O)N[C@@H](Cc4csc5ccccc45)C(=O)N[C@@H](CCC(N)=O)C(N)=O)(C3)NC(=O)[C@H](CC(N)=O)NC(=O)[C@H](Cc3ccccc3)NC(=O)[C@H](C)NC(=O)[C@H](C)NC(=O)[C@H](CCC(=O)O)NC(=O)[C@H](CC(=O)O)NC1=O)NC(=O)[C@H](CC(C)(C)C)NC(=O)[C@H](CC(=O)O)NC2=O (stereo partly drawn) [I-685, Ac-PL3-Asp-Npg-B5-Asp-Glu-Ala-Ala-Phe-Asn-PyrS2-Phe-BztA-Gln-NH2] | 25 nM | 25 nM | 2.1 | 19400 nM | 44 µM (≈ 84.8 µg/mL) | – | – | – | –
CC(=O)N1CCC[C@]12CC=CCCCC1(CCCC=CCCCOC(=O)N3CC[C@@](C(=O)N[C@@H](Cc4ccsc4)C(=O)N[C@@H](Cc4csc5ccccc45)C(=O)N[C@@H](CCC(N)=O)C(N)=O)(C3)NC(=O)[C@H](CC(N)=O)NC(=O)[C@H](Cc3ccccc3)NC(=O)[C@H](C)NC(=O)[C@H](C)NC(=O)[C@H](CC(=O)O)NC(=O)[C@H](CC(=O)O)NC1=O)NC(=O)[C@H](CC(C)C)NC(=O)[C@H](CC(=O)O)NC2=O (stereo partly drawn) [I-688, Ac-PL3-Asp-Leu-B5-Asp-Asp-Ala-Ala-Phe-Asn-PyrS2-3Thi-BztA-Gln-NH2] | 6 nM | 6 nM | 1.924 | 30100 nM | 46 µM (≈ 87.6 µg/mL) | – | – | – | –
CC(=O)N1CCC[C@]12CC=CCCCC1(CCCC=CCCCOC(=O)N3CC[C@@](C(=O)N[C@@H](Cc4ccsc4)C(=O)N[C@@H](Cc4csc5ccccc45)C(=O)N[C@@H](CCC(N)=O)C(N)=O)(C3)NC(=O)[C@H](CC(N)=O)NC(=O)[C@H](Cc3ccccc3)NC(=O)[C@H](C)NC(=O)[C@H](C)NC(=O)[C@H](CC(=O)O)NC(=O)[C@H](CC(=O)O)NC1=O)NC(=O)[C@H](CC(C)C)NC(=O)[C@H](CC(=O)O)NC2=O (stereo partly drawn) [I-689, Ac-PL3-Asp-Leu-B5-Asp-Asp-Ala-Ala-Phe-Asn-PyrS2-3Thi-BztA-Gln-NH2] | 11 nM | 11 nM | 1.957 | 33900 nM | 50 µM (≈ 95.2 µg/mL) | – | – | – | –
CC(=O)N1CCC[C@]12CC=CCCCC1(CCCC=CCCCOC(=O)N3CC[C@@](C(=O)N[C@@H](Cc4ccsc4)C(=O)N[C@@H](Cc4csc5ccccc45)C(=O)N[C@@H](CCC(N)=O)C(N)=O)(C3)NC(=O)[C@H](CC(N)=O)NC(=O)[C@H](Cc3ccccc3)NC(=O)[C@H](C)NC(=O)[C@H](C)NC(=O)[C@H](CCC(=O)O)NC(=O)[C@H](CC(=O)O)NC1=O)NC(=O)[C@H](CC(C)(C)C)NC(=O)[C@H](CC(=O)O)NC2=O (stereo partly drawn) [I-690, Ac-PL3-Asp-Npg-B5-Asp-Glu-Ala-Ala-Phe-Asn-PyrS2-3Thi-BztA-Gln-NH2] | 7 nM | 7 nM | 2.013 | 17800 nM | 44 µM (≈ 85 µg/mL) | – | – | – | –
CC(=O)N1CCC[C@]12CC=CCCCC1(CCCC=CCCCOC(=O)N3CC[C@@](C(=O)N[C@@H](Cc4ccsc4)C(=O)N[C@@H](Cc4csc5ccccc45)C(=O)N[C@@H](CCC(N)=O)C(N)=O)(C3)NC(=O)[C@H](CC(N)=O)NC(=O)[C@H](Cc3ccccc3)NC(=O)[C@H](C)NC(=O)[C@H](C)NC(=O)[C@H](CCC(=O)O)NC(=O)[C@H](CC(=O)O)NC1=O)NC(=O)[C@H](CC(C)(C)C)NC(=O)[C@H](CC(=O)O)NC2=O (stereo partly drawn) [I-691, Ac-PL3-Asp-Npg-B5-Asp-Glu-Ala-Ala-Phe-Asn-PyrS2-3Thi-BztA-Gln-NH2] | 9 nM | 9 nM | 2.068 | 17000 nM | 45 µM (≈ 86.9 µg/mL) | – | – | – | –
CC(=O)N1CCC[C@]12CC=CCCCC1(CCCC=CCCCOC(=O)N3CC[C@@](C(=O)N[C@@H](Cc4ccccc4)C(=O)N[C@@H](Cc4csc5ccccc45)C(=O)N[C@@H](Cc4c[nH]cn4)C(N)=O)(C3)NC(=O)[C@H](CC(N)=O)NC(=O)[C@H](Cc3ccccc3)NC(=O)[C@H](C)NC(=O)[C@H](C)NC(=O)[C@H](CCC(=O)O)NC(=O)[C@H](CC(=O)O)NC1=O)NC(=O)[C@H](CC(C)(C)C)NC(=O)[C@H](CC(=O)O)NC2=O (stereo partly drawn) [I-692, Ac-PL3-Asp-Npg-B5-Asp-Glu-Ala-Ala-Phe-Asn-PyrS2-Phe-BztA-His-NH2] | 9 nM | 9 nM | 2.12 | 25600 nM | 38 µM (≈ 73.5 µg/mL) | – | – | – | –

The next lines start with the values.

IC50 [1, 5] | IC50 ([1]; read-out: FP EC50) | CHI Log D [2] | IC50 ([3]; absolute IC50) | Solubility [4] | inhibition at 10 µM [3] | chromatographic logD [2] | Solubility ([4]; Solubility (uM)) | IC50 ([3]; Abs IC50) | Structure (SMILES)
12 nM | 12 nM | 2.184 | 28500 nM | 34 µM (≈ 65.8 µg/mL) | – | – | – | – | CC(=O)N1CCC[C@]12CC=CCCCC1(CCCC=CCCCOC(=O)N3CC[C@@](C(=O)N[C@@H](Cc4ccccc4)C(=O)N[C@@H](Cc4csc5ccccc45)C(=O)N[C@@H](Cc4c[nH]cn4)C(N)=O)(C3)NC(=O)[C@H](CC(N)=O)NC(=O)[C@H](Cc3ccccc3)NC(=O)[C@H](C)NC(=O)[C@H](C)NC(=O)[C@H](CCC(=O)O)NC(=O)[C@H](CC(=O)O)NC1=O)NC(=O)[C@H](CC(C)(C)C)NC(=O)[C@H](CC(=O)O)NC2=O (stereo partly drawn) [I-693, Ac-PL3-Asp-Npg-B5-Asp-Glu-Ala-Ala-Phe-Asn-PyrS2-Phe-BztA-His-NH2]
5 nM | – | 2.073 | – | 40 µM (≈ 77.1 µg/mL) | 32.7% | – | – | – | CC(=O)N1CCC[C@]12CC=CCCCC1(CCCC=CCCCOC(=O)N3CC[C@@](C(=O)N[C@@H](Cc4ccsc4)C(=O)N[C@@H](Cc4csc5ccccc45)C(=O)N[C@@H](Cc4c[nH]cn4)C(N)=O)(C3)NC(=O)[C@H](CC(N)=O)NC(=O)[C@H](Cc3ccccc3)NC(=O)[C@H](C)NC(=O)[C@H](C)NC(=O)[C@H](CC(=O)O)NC(=O)[C@H](CC(=O)O)NC1=O)NC(=O)[C@H](CC(C)(C)C)NC(=O)[C@H](CC(=O)O)NC2=O (stereo partly drawn) [I-694, Ac-PL3-Asp-Npg-B5-Asp-Asp-Ala-Ala-Phe-Asn-PyrS2-3Thi-BztA-His-NH2]
5 nM | – | – | – | – | 17% | 2 | 40 µM (≈ 76.5 µg/mL) | – | CC(=O)N1CCC[C@]12CC=CCCCC1(CCCC=CCCCOC(=O)N3CC[C@@](C(=O)N[C@@H](Cc4ccsc4)C(=O)N[C@@H](Cc4csc5ccccc45)C(=O)N[C@@H](Cc4c[nH]cn4)C(N)=O)(C3)NC(=O)[C@H](CC(N)=O)NC(=O)[C@H](Cc3ccccc3)NC(=O)[C@H](C)NC(=O)[C@H](C)NC(=O)[C@H](CC(=O)O)NC(=O)[C@H](CC(=O)O)NC1=O)NC(=O)[C@H](CC(C)C)NC(=O)[C@H](CC(=O)O)NC2=O (stereo partly drawn) [I-696, Ac-PL3-Asp-Leu-B5-Asp-Asp-Ala-Ala-Phe-Asn-PyrS2-3Thi-BztA-His-NH2]
5 nM | – | 2.093 | 14700 nM | 21 µM (≈ 40.8 µg/mL) | – | – | – | – | CC(=O)N1CCC[C@]12CC=CCCCC1(CCCC=CCCCOC(=O)N3CC[C@@](C(=O)N[C@@H](Cc4ccsc4)C(=O)N[C@@H](Cc4csc5ccccc45)C(=O)N[C@@H](Cc4c[nH]cn4)C(N)=O)(C3)NC(=O)[C@H](CC(N)=O)NC(=O)[C@H](Cc3ccccc3)NC(=O)[C@H](C)NC(=O)[C@H](C)NC(=O)[C@H](CCC(=O)O)NC(=O)[C@H](CC(=O)O)NC1=O)NC(=O)[C@H](CC(C)(C)C)NC(=O)[C@H](CC(=O)O)NC2=O (stereo partly drawn) [I-697, Ac-PL3-Asp-Npg-B5-Asp-Glu-Ala-Ala-Phe-Asn-PyrS2-3Thi-BztA-His-NH2]
34 nM | 34 nM | 2.631 | 18100 nM | 46 µM (≈ 90.7 µg/mL) | – | – | – | – | CC[C@H](C)[C@@H]1NC(=O)[C@H](CC(=O)O)NC(=O)[C@]2(CC=CCCCC3(CCCC=CCCCCCC[C@@](C)(C(=O)N[C@@H](Cc4ccsc4)C(=O)N[C@@H](Cc4csc5ccccc45)C(=O)N[C@@H](CCC(N)=O)C(N)=O)NC(=O)[C@H](CC(N)=O)NC(=O)[C@H](Cc4ccccc4)NC(=O)[C@H](C)NC(=O)[C@H](C)NC(=O)[C@H](CN(CC(=O)O)CC(F)(F)F)NC(=O)[C@H](CC(=O)O)NC3=O)NC1=O)CCCN2C(C)=O (stereo partly drawn) [I-701, Ac-PL3-Asp-Ile-B5-Asp-TfeGA-Ala-Ala-Phe-Asn-S8-3Thi-BztA-Gln-NH2]
57 nM | – | – | – | 50 µM (≈ 99 µg/mL) | – | 2.76 | – | 11900 nM | CC(=O)N1CCC[C@]12CC=CCCCC1(CCCC=CCCCCCC[C@@](C)(C(=O)N[C@@H](Cc3ccccc3)C(=O)N[C@@H](Cc3csc4ccccc34)C(=O)N[C@@H](CCC(N)=O)C(N)=O)NC(=O)[C@H](CC(N)=O)NC(=O)[C@H](Cc3ccccc3)NC(=O)[C@H](C)NC(=O)[C@H](C)NC(=O)[C@H](CN(CC(=O)O)CC(F)(F)F)NC(=O)[C@H](CC(=O)O)NC1=O)NC(=O)[C@H](CC(C)(C)C)NC(=O)[C@H](CC(=O)O)NC2=O (stereo partly drawn) [I-703, Ac-PL3-Asp-Npg-B5-Asp-TfeGA-Ala-Ala-Phe-Asn-S8-Phe-BztA-Gln-NH2]
